Assay results: paper PMC9827630, “Intra-colony venom diversity contributes to maintaining eusociality in a cooperatively breeding ant” (BMC Biology, 2023)
Where no end group is shown, it is not given here.

These substances were tested on Acinetobacter baumannii ATCC 19606 (assay: Antimicrobial growth inhibition (CO-ADD)). Conditions: percentage growth inhibition, absorbance at 600 nm; mean ± SEM.
Assay type: cell-based
Procedure: (§1) Antimicrobial and cytotoxicity assays were performed by CO-ADD (The Community for Antimicrobial Drug Discovery, Institute for Molecular Bioscience, The University of Queensland). […] Percentage growth inhibition was calculated using negative controls (media only) and positive controls (no peptide). For the hemolysis assays, human whole blood was washed three times with 3 volumes of 0.9% NaCl and then resuspended in 0.9% NaCl to a concentration of 0.5 × 10^8 cells/mL. Cells were incubated for 1 h at 37°C with or without the peptide. After incubation, plates were centrifuged at 1000 g for 10 min to pellet cells and debris and hemolysis determined by measuring the supernatant absorbance at 405 nm.
In the case of ALWDTIKKWVAKVLPLVKNALK-NH2 [Rm20a], the “Max response ± SEM” value is reported as 100 ± 1.
FLPFLIPVIASLVSSLK-NH2 [Rm55a] was tested, and the “Max response ± SEM” value was 24 ± 1.

Same assay, conditions: sigmoidal dose-response fit of growth inhibition, absorbance at 600 nm
For ALWDTIKKWVAKVLPLVKNALK-NH2 [Rm20a], the MIC was no more than 0.10 µM.
For FLPFLIPVIASLVSSLK-NH2 [Rm55a], the MIC was greater than 17 µM.

Same assay, conditions: summary of Table S2
Substance ALWDTIKKWVAKVLPLVKNALK-NH2 [Rm20a] has an EC50 of no more than 0.1 µM.

These substances were tested on Escherichia coli ATCC 25922 (assay: Antimicrobial growth inhibition (CO-ADD)). Conditions: percentage growth inhibition, absorbance at 600 nm; mean ± SEM.
Assay type: cell-based
Procedure: as §1
For ALWDTIKKWVAKVLPLVKNALK-NH2 [Rm20a], the “Max response ± SEM” value was 100 ± 0.
In the case of FLPFLIPVIASLVSSLK-NH2 [Rm55a], the “Max response ± SEM” value is reported as 4 ± 1.

Same assay, conditions: sigmoidal dose-response fit of growth inhibition, absorbance at 600 nm
ALWDTIKKWVAKVLPLVKNALK-NH2 [Rm20a] showed an MIC of 13 µM.
With FLPFLIPVIASLVSSLK-NH2 [Rm55a] the MIC was greater than 17 µM.

These substances were tested on Klebsiella pneumoniae ATCC 700603 (assay: Antimicrobial growth inhibition (CO-ADD)). Conditions: percentage growth inhibition, absorbance at 600 nm; mean ± SEM.
Assay type: cell-based
Procedure: as §1
In the case of ALWDTIKKWVAKVLPLVKNALK-NH2 [Rm20a], the “Max response ± SEM” value is reported as 71 ± 29.
For FLPFLIPVIASLVSSLK-NH2 [Rm55a], the “Max response ± SEM” value was 8 ± 1.

Same assay, conditions: sigmoidal dose-response fit of growth inhibition, absorbance at 600 nm
For ALWDTIKKWVAKVLPLVKNALK-NH2 [Rm20a], the MIC was greater than 13 µM.
FLPFLIPVIASLVSSLK-NH2 [Rm55a] gave an MIC greater than 17 µM.

Each substance was assayed on Pseudomonas aeruginosa ATCC 27853 (assay: Antimicrobial growth inhibition (CO-ADD)). Conditions: percentage growth inhibition, absorbance at 600 nm; mean ± SEM.
Assay type: cell-based
Procedure: as §1
ALWDTIKKWVAKVLPLVKNALK-NH2 [Rm20a] was tested, and the “Max response ± SEM” value was 14 ± 2.
FLPFLIPVIASLVSSLK-NH2 [Rm55a] was tested, and the “Max response ± SEM” value was 10 ± 1.

Same assay, conditions: sigmoidal dose-response fit of growth inhibition, absorbance at 600 nm
Substance ALWDTIKKWVAKVLPLVKNALK-NH2 [Rm20a] has an MIC greater than 13 µM.
FLPFLIPVIASLVSSLK-NH2 [Rm55a] was tested, and the MIC was greater than 17 µM.

These substances were tested on Staphylococcus aureus ATCC 43300 (assay: Antimicrobial growth inhibition (CO-ADD)). Conditions: not given.
Assay type: cell-based
Procedure: as §1
In the case of FLPFLIPVIASLVSSLK-NH2 [Rm55a], the “Inhibition of S. aureus (in words)” value is reported as “complete inhibition”.

Same assay, conditions: percentage growth inhibition, absorbance at 600 nm; mean ± SEM
For ALWDTIKKWVAKVLPLVKNALK-NH2 [Rm20a], the “Max response ± SEM” value was 102 ± 2.
FLPFLIPVIASLVSSLK-NH2 [Rm55a] was tested, and the “Max response ± SEM” value was 103 ± 2.

Same assay, conditions: sigmoidal dose-response fit of growth inhibition, absorbance at 600 nm
ALWDTIKKWVAKVLPLVKNALK-NH2 [Rm20a] was tested, and the MIC was 1.6 µM.
With FLPFLIPVIASLVSSLK-NH2 [Rm55a] the MIC was no more than 0.14 µM.

Same assay, conditions: summary of Table S2
With FLPFLIPVIASLVSSLK-NH2 [Rm55a] the EC50 was no more than 0.14 µM.

Each substance was assayed on Candida albicans ATCC 90028 (assay: Antifungal growth inhibition (CO-ADD)). Conditions: percentage growth inhibition, absorbance at 530 nm; mean ± SEM.
Assay type: cell-based
Procedure: as §1
In the case of ALWDTIKKWVAKVLPLVKNALK-NH2 [Rm20a], the “Max response ± SEM” value is reported as 8 ± 7.
FLPFLIPVIASLVSSLK-NH2 [Rm55a] was tested, and the “Max response ± SEM” value was 3 ± 0.

Same assay, conditions: sigmoidal dose-response fit of growth inhibition, absorbance at 530 nm
Work on ALWDTIKKWVAKVLPLVKNALK-NH2 [Rm20a] yielded an MIC greater than 13 µM.
FLPFLIPVIASLVSSLK-NH2 [Rm55a] showed an MIC greater than 17 µM.

Each substance was assayed on Cryptococcus neoformans var. grubii H99; ATCC 208821 (assay: Antifungal growth inhibition (CO-ADD)). Conditions: percentage growth inhibition, difference in absorbance 600 and 570 nm after resazurin, 35°C 2 h; mean ± SEM.
Assay type: cell-based
Procedure: as §1
For ALWDTIKKWVAKVLPLVKNALK-NH2 [Rm20a], the “Max response ± SEM” value was 88 ± 1.
FLPFLIPVIASLVSSLK-NH2 [Rm55a] was tested, and the “Max response ± SEM” value was -10 ± 0.

Same assay, conditions: sigmoidal dose-response fit of growth inhibition, resazurin read-out
Work on ALWDTIKKWVAKVLPLVKNALK-NH2 [Rm20a] yielded an MIC of 0.79 µM.
For FLPFLIPVIASLVSSLK-NH2 [Rm55a], the MIC was greater than 17 µM.

The substances below were run on Human embryonic kidney cells ATCC CRL-1573 (assay: Cytotoxicity assay (CO-ADD), resazurin). Conditions: percentage growth inhibition, resazurin fluorescence, 37°C 5% CO2; mean ± SEM.
Assay type: cell-based
Procedure: as §1
For ALWDTIKKWVAKVLPLVKNALK-NH2 [Rm20a], the “Max response ± SEM” value was 57 ± 5.
For FLPFLIPVIASLVSSLK-NH2 [Rm55a], the “Max response ± SEM” value was 51 ± 0.

Same assay, conditions: resazurin fluorescence; sigmoidal dose-response fit
With ALWDTIKKWVAKVLPLVKNALK-NH2 [Rm20a] the “CC50 (concentration at 50% cytotoxicity)” value was 11 µM.
For FLPFLIPVIASLVSSLK-NH2 [Rm55a], the “CC50 (concentration at 50% cytotoxicity)” value was >17 (CC50) uM.

These substances were tested on Human red blood cells (assay: Hemolysis assay (CO-ADD)). Conditions: 1 h at 37°C, absorbance at 405 nm; sigmoidal dose-response fit.
Assay type: cell-based
Procedure: as §1
For ALWDTIKKWVAKVLPLVKNALK-NH2 [Rm20a], the “HC50 (concentration at 50% hemolytic activity)” value was >13 (HC50) uM.
In the case of FLPFLIPVIASLVSSLK-NH2 [Rm55a], the “HC50 (concentration at 50% hemolytic activity)” value is reported as >17 (HC50) uM.

Same assay, conditions: hemolysis, washed human blood 0.5 × 10^8 cells/mL in 0.9% NaCl, 1 h at 37°C, supernatant absorbance at 405 nm; mean ± SEM
With FLPFLIPVIASLVSSLK-NH2 [Rm55a] the “Max response ± SEM” value was 15 ± 6.

The substances below were run on F11 (mouse neuroblastoma × rat dorsal root ganglion (DRG) neuron hybrid) cells (assay: Calcium imaging of F11 cells (FLIPR)). Conditions: increase in [Ca2+]i, max – min fluorescence, n = 3, four-parameter Hill equation; read-out: EC50 (effect on F11 cells, Fig. 5).
Assay type: cell-based
Procedure: F11 (mouse neuroblastoma × rat dorsal root ganglion (DRG) neuron hybrid) cells were cultured as previously described. Cells were maintained on Ham’s F12 media supplemented with 10 % fetal bovine serum, 100 μM hypoxanthine, 0.4 μM aminopterin, and 16 μM thymidine (Hybri-MaxTM, Sigma Aldrich). 384-well imaging plates (Corning, Lowell, MA, USA) were seeded 48 h prior to imaging resulting in 90 – 95% confluence at imaging. Cells were incubated for 30 min with Calcium 4 assay component A, as per the manufacturer’s instructions (Molecular Devices, Sunnyvale, CA) in physiological salt solution (PSS; composition in mM: 140 NaCl, 11.5 D-glucose, 5.9 KCl, 1.4 MgCl2, 1.2 NaH2PO4, 5 NaHCO3, 1.8 CaCl2, 10 HEPES) at 37°C. […] Signals were read every second for 10 s before, and 300 s after, the addition of peptides in PSS supplemented with 0.1% bovine serum albumin. All data represent mean ± SEM of a representative assay in triplicate. Fluorescence changes on peptide addition were compared to addition of negative control solution (0.1% BSA in PSS). The resulting maximum-minimum fluorescence in the 300 s period after peptide addition was recorded as the response.
In the case of FLPFLIPVIASLVSSLK-NH2 [Rm55a], the EC50 is reported as 9.2 µM.

Same assay, conditions: increase in [Ca2+]i, max-min fluorescence over 300 s; read-out: EC50 (F11 cells, Table S2)
ALWDTIKKWVAKVLPLVKNALK-NH2 [Rm20a] showed an EC50 of 8.1 µM.

These substances were tested on HEK (assay: Ion permeability HEK). Conditions: ions listed as permeant; - = none.
Assay type: cell-based, Human
With ALWDTIKKWVAKVLPLVKNALK-NH2 [Rm20a] the “ion permeability HEK” value was “Ca2+,Na+,Th+”.
With FLPFLIPVIASLVSSLK-NH2 [Rm55a] the “ion permeability HEK” value was “Ca2+,Na+”.

What follows are substances tested on F11 (assay: Ion permeability F11). Conditions: ions listed as permeant; - = none.
Assay type: cell-based, mouse
For ALWDTIKKWVAKVLPLVKNALK-NH2 [Rm20a], the “ion permeability F11” value was “Ca2+,Na+,Th+”.
FLPFLIPVIASLVSSLK-NH2 [Rm55a] was tested, and the “ion permeability F11” value was “Ca2+,Na+,Th+”.

What follows are substances tested on HAP1 cells (assay: Cell viability assay, resazurin). Conditions: not given.
Assay type: cell-based
Procedure: In addition to the cytotoxicity assays performed by CO-ADD, we screened the synthetic peptides for toxicity in cell viability assays using HAP1, MM96L, and HEK293T cells. peptides were reconstituted in 100% DMSO then diluted in cell media (HAP1: IMDM (Sigma Aldrich) with 10% FBS and 1% Penicillin/Streptomycin (P/S); MM96L: RPMI (Gibco) with 10% FBS, 1% P/S and 1% GlutaMAX (Gibco); HEK293T: DMEM high glucose (Gibco), with 10% FBS and 1% P/S. Trypsinized cells ([…]) were seeded in each well of a 96-well plate. 0.01 to 1000 μM peptide was added to each well after 24 h, and the cells incubated for an additional 74 h. After incubation, the medium was aspirated from each well and 150 μL of fresh medium containing a 0.002% solution of resazurin (Sigma-Aldrich) was added to the wells and incubated for 4 h at 37 °C. The absorbance was measured at 570 nm using a microplate spectrophotometer (FLUOstar Omega, BMG Labtech, Germany). Percentage cell viability at concentrations of 10 and 100 μM peptide were compared with negative control by one-way ANOVA Dunnett’s multiple comparisons test (GraphPad Prism8).
For ALWDTIKKWVAKVLPLVKNALK-NH2 [Rm20a], the “Cytotoxicity to HAP cells” value was “cytotoxic to HAP cells”.
With FLPFLIPVIASLVSSLK-NH2 [Rm55a] the “Cytotoxicity to HAP cells” value was “cytotoxic to HAP cells”.

Same assay, conditions: 10 μM peptide, n = 3 per group
ALWDTIKKWVAKVLPLVKNALK-NH2 [Rm20a] was tested, and the HAP cell viability was “significantly reduced HAP cell viability”.

Same assay, conditions: 100 μM peptide, n = 3, mean ± SEM
FLPFLIPVIASLVSSLK-NH2 [Rm55a] was tested, and the HAP cell viability was 24.6 ± 8.1%.

What follows are substances tested on panel of microbes (assay: Antimicrobial screening, summary over the panel of microbes). Conditions: all microbial strains except Pseudomonas aeruginosa and Candida albicans.
Assay type: cell-based
Procedure: as §1
ALWDTIKKWVAKVLPLVKNALK-NH2 [Rm20a] was tested, and the “Growth inhibition over the microbial strains examined” value was “complete or near-complete growth inhibition of all microbial strains”.

Same assay, conditions: all strains of the panel (for Rm54a and Rm55a: strains other than S. aureus)
For FLPFLIPVIASLVSSLK-NH2 [Rm55a], the “Growth inhibition over the microbial strains examined” value was “not affecting any of the other strains examined”.
